This is an account of results in US6881725B2, “Method for treating pain” (Inspire Pharmaceuticals Inc., priority 2002, dated 2005).

In experiment [1] the test system is rats. The conditions noted are these: Jarvis and Kowaluk, 2001; cited from earlier work.
In experiment [2] the test system is rats. Description: Spinal Nerve (L5/L6) Ligation model for neuropathic pain (tactile allodynia, von Frey) in rats. The format is in vivo. The conditions noted are these: rat.
In experiment [3] the test system is mice. As to the kind of experiment: Formalin assay for persistent inflammatory pain (phase II) in mice. The class given is in vivo, mouse. The note with it: 5% formalin s.c. right hindpaw; compound s.c. same paw 10 minutes after formalin; 10-30 minutes post formalin; across doses. How it is done:
This example illustrates the effect of AP4AmA in mice in phase II of the formalin assay for persistent inflammatory pain. In brief, mice were injected 20 microliters of a 5% full strength formalin solution subcutaneously (s.c.) into the dorsal aspect of the right hindpaw. The mice were returned to the observation cage. The mice were injected 10 microliters s.c. into the same dorsal aspect of the right hindpaw with either vehicle or AP4AmA in varying concentrations 10 minutes after the formalin injection. […]

In experiment [4] the test system is mice. Description: Acetic acid-induced abdominal constriction assay for visceral pain in mice. The class given is in vivo, mouse. How it is done: (§1) These examples illustrate the effects of AP4AmA in two similar models of abdominal constriction; acetic acid-induced and phenylbenzoquinone-induced constrictions in mice. The method employed in FIGS. 2A and […] was a modification of the abdominal constriction test described by Collier et. al (Collier, H, O. et. al, Br. J. Pharmacol. Chemother. 32:295-310 (1968)).
Briefly, in FIG. 2A, each animal, received an intraperitoneal (i.p.) injection of 0.9% acetic acid in a volume of 10 mL/kg. The mouse was placed in an observation chamber shortly after the acetic acid injection and allowed to explore. Testing started five minutes after the acetic acid injection and consisted of 10 minutes of observation during which the number of abdominal constrictions was counted. Abdominal constriction was defined as a lengthwise stretching of the torso with concave arching of the back. AP4AmA and vehicle were administered i.p., in a volume of 10 mL/kg, 3 minutes prior to the administration of acetic acid while Morphine was administered i.p., in a volume of 10 mL/kg, 25 minutes prior to the administration of acetic acid.

For experiment [5], the system named is mice. As to the kind of experiment: Hotplate assay for acute pain in mice. The class given is in vivo, mouse. How it is done: The action of P^1-5′-[2′-(O)—,3′-(O)-(benzyl)methylenedioxy]adenosine-P^4-5″-adenosine tetraphosphate, (AP4AmA; AP4A-2′, 3′-mono-acetal with phenylacetaldehyde) on mice in the hotplate model illustrates the analgesic affect of compounds of Formula I. The temperature of the hot plate was set at 55 degrees Celsius. Animals were administered subcutaneously AP4AmA or saline into the dorsal aspect of both hind paws in a volume of 20 microliters. This administration occurred 5 minutes prior to placement on the hotplate. Morphine was administered subcutaneously into the back nape of the mouse's neck in a volume of 10 mL/kg.
The time to hindpaw lick was used as the efficacy endpoint.

In experiment [6] the test system is mice. Description: Phenylbenzoquinone-induced abdominal constriction assay for visceral pain in mice. The class given is in vivo, mouse. How it is done:
as §1
Briefly, in FIG. 2B, each animal received an i.p. injection of 0.02% phenylbenzoquinone in a volume of 10 mL/kg. The mouse was placed in an observation chamber shortly after the acetic acid injection and allowed to explore. Testing started five minutes after the acetic acid injection and consisted of 5 minutes of observation during which the number of abdominal constrictions was counted. Abdominal constriction was defined as a lengthwise stretching of the torso with concave arching of the back. AP4AmA and vehicle were administered i.p., in a volume of 10 mL/kg, 3 minutes prior to the administration of acetic acid while morphine was administered i.p., in a volume of 10 mL/kg, 30 minutes prior to the administration of acetic acid.

Where [7] appears, read: mouse hotplate, highest dose of AP4AmA.

On to TNP-ATP, for which, in the experiment on rats [1], the antinociceptive effects result is “produce antinociceptive effects in rats”.
`Nc1ncnc2c1ncn2[C@@H]1O[C@H](COP(=O)(O)OP(=O)(O)OP(=O)(O)OP(=O)(O)OC[C@H]2O[C@@H](n3cnc4c(N)ncnc43)[C@@H]3OC(Cc4ccccc4)O[C@@H]32)[C@@H](O)[C@H]1O` (stereo partly drawn) [AP4AmA, P^1-5′-[2′-(O)—,3′-(O)-(benzyl)methylenedioxy]adenosine-P^4-5″-adenosine tetraphosphate]: in the experiment with rats [2] (von Frey filaments), the “gram force required to induce withdrawal of the allodynic hindpaw, compared with morphine” value was “not statistically different from morphine” and the “gram force required to induce withdrawal of the allodynic hindpaw, compared with vehicle control” value is given as “significantly different from vehicle control”. The reversal of allodynia result in the experiment on rats [2] (0.03 mg/mL, 50 microliters subplantar, 60 minutes prior to testing, versus morphine i.p. 16 mg/kg) is “can reverse the allodynia in the rat to an equivalent level as morphine”. Moreover, in the experiment with mice [3], the “duration of time spent licking the inflamed hind paw” value is “dose dependent pharmacological effect”. Also, the “number of abdominal constrictions” value with mice [4] (0.9% acetic acid i.p., compound i.p. 3 minutes prior, across doses) was “dose dependent pharmacological effect”. Moreover, the “number of abdominal constrictions, compared with morphine” value in the experiment with mice [4] (acetic acid model, 100 mg/kg AP4AmA i.p.) was “not statistically different from morphine”. Moreover, in the experiment on mice [5] (mouse hotplate 55 degrees Celsius, s.c. into both hind paws 5 minutes before, across doses), the “time to hindpaw lick, maximal percent effect (MPE %)” value is listed as “dose dependent pharmacological effect”. Also, in the experiment on mice [5] (setting [7]), the “time to hindpaw lick, maximal percent effect, compared with morphine” value is on record as “statistically equivalent to morphine” and the “time to hindpaw lick, maximal percent effect, compared with vehicle control” value is “statistically significant from vehicle control”. Moreover, in the experiment on mice [6] (0.02% phenylbenzoquinone i.p., compound i.p. 3 minutes prior, across doses), the “number of abdominal constrictions” value was “dose dependent pharmacological effect”. The “number of abdominal constrictions, compared with morphine” value in the experiment with mice [6] (phenylbenzoquinone model, 30 mg/kg AP4AmA i.p.) is listed as “not statistically different from morphine”.
